Results as given in ChEMBL document CHEMBL2150993, “Substituted thiazoles VII. Synthesis and antitumor activity of certain 2-(substituted amino)-4-phenyl-1,3-thiazole analogs” (2012).
The source made the active and inactive calls. The calls are words filed in the database; no cut-off is given here.

Legend:
Format in all cases: functional
CCRF-CEM = test: Growth inhibition of human CCRF-CEM cells after 48 hrs by cell counting analysis; conditions: at 10 µM
HL-60 = test: Growth inhibition of human HL60 cells after 48 hrs by cell counting analysis; conditions: at 10 µM
K562 = test: Growth inhibition of human K562 cells after 48 hrs by cell counting analysis; conditions: at 10 µM
RPMI-8226 = test: Growth inhibition of human RPMI8226 cells after 48 hrs by cell counting analysis; conditions: at 10 µM
SR = test: Growth inhibition of human SR cells after 48 hrs by cell counting analysis; conditions: at 10 µM
A549 = test: Growth inhibition of human A549 cells after 48 hrs by cell counting analysis; conditions: at 10 µM
EKVX = test: Growth inhibition of human EKVX cells after 48 hrs by cell counting analysis; conditions: at 10 µM
HOP-62 = test: Growth inhibition of human HOP62 cells after 48 hrs by cell counting analysis; conditions: at 10 µM
HOP-92 = test: Growth inhibition of human HOP92 cells after 48 hrs by cell counting analysis
NCI-H226 = test: Growth inhibition of human NCI-H226 cells after 48 hrs by cell counting analysis; conditions: at 10 µM
NCI-H23 = test: Growth inhibition of human NCI-H23 cells after 48 hrs by cell counting analysis; conditions: at 10 µM
[1] = Growth inhibition of human NCI-322M cells after 48 hrs by cell counting analysis; conditions: at 10 µM
NCI-H522 = test: Growth inhibition of human NCI-H522 cells after 48 hrs by cell counting analysis; conditions: at 10 µM
HCC 2998 = test: Growth inhibition of human HCC2998 cells after 48 hrs by cell counting analysis; conditions: at 10 µM
HCT-15 = test: Growth inhibition of human HCT15 cells after 48 hrs by cell counting analysis; conditions: at 10 µM
HT-29 = test: Growth inhibition of human HT-29 cells after 48 hrs by cell counting analysis; conditions: at 10 µM
KM12 = test: Growth inhibition of human KM12 cells after 48 hrs by cell counting analysis; conditions: at 10 µM
SW-620 = test: Growth inhibition of human SW620 cells after 48 hrs by cell counting analysis; conditions: at 10 µM
SF-268 = test: Growth inhibition of human SF268 cells after 48 hrs by cell counting analysis; conditions: at 10 µM
SF-295 = test: Growth inhibition of human SF295 cells after 48 hrs by cell counting analysis; conditions: at 10 µM
SF-539 = test: Growth inhibition of human SF539 cells after 48 hrs by cell counting analysis; conditions: at 10 µM
SNB-19 = test: Growth inhibition of human SNB19 cells after 48 hrs by cell counting analysis; conditions: at 10 µM
SNB-75 = test: Growth inhibition of human SNB75 cells after 48 hrs by cell counting analysis; conditions: at 10 µM
U-251 = test: Growth inhibition of human U251 cells after 48 hrs by cell counting analysis; conditions: at 10 µM
LOX IMVI = test: Growth inhibition of human LOXIMVI cells after 48 hrs by cell counting analysis; conditions: at 10 µM
Malme-3M = test: Growth inhibition of human MALME-3M cells after 48 hrs by cell counting analysis; conditions: at 10 µM
M14 = test: Growth inhibition of human M14 cells after 48 hrs by cell counting analysis; conditions: at 10 µM
MDA-MB-435 = test: Growth inhibition of human MDA-MB-435 cells after 48 hrs by cell counting analysis; conditions: at 10 µM
SK-MEL-2 = test: Growth inhibition of human SK-MEL-2 cells after 48 hrs by cell counting analysis; conditions: at 10 µM
SK-MEL-28 = test: Growth inhibition of human SK-MEL-28 cells after 48 hrs by cell counting analysis; conditions: at 10 µM
SK-MEL-5 = test: Growth inhibition of human SK-MEL-5 cells after 48 hrs by cell counting analysis; conditions: at 10 µM
UACC-257 = test: Growth inhibition of human UACC257 cells after 48 hrs by cell counting analysis; conditions: at 10 µM
UACC-62 = test: Growth inhibition of human UACC62 cells after 48 hrs by cell counting analysis; conditions: at 10 µM
IGROV-1 = test: Growth inhibition of human IGROV1 cells after 48 hrs by cell counting analysis; conditions: at 10 µM
OVCAR-3 = test: Growth inhibition of human OVCAR3 cells after 48 hrs by cell counting analysis; conditions: at 10 µM
OVCAR-4 = test: Growth inhibition of human OVCAR4 cells after 48 hrs by cell counting analysis; conditions: at 10 µM
OVCAR-5 = test: Growth inhibition of human OVCAR5 cells after 48 hrs by cell counting analysis; conditions: at 10 µM
OVCAR-8 = test: Growth inhibition of human OVCAR8 cells after 48 hrs by cell counting analysis; conditions: at 10 µM
[2] = Growth inhibition of human NCI-ADR-RES cells after 48 hrs by cell counting analysis; conditions: at 10 µM
SK-OV-3 = test: Growth inhibition of human SKOV3 cells after 48 hrs by cell counting analysis; conditions: at 10 µM
ACHN = test: Growth inhibition of human ACHN cells after 48 hrs by cell counting analysis; conditions: at 10 µM
CAKI-1 = test: Growth inhibition of human Caki1 cells after 48 hrs by cell counting analysis; conditions: at 10 µM
RXF 393 = test: Growth inhibition of human RXF393 cells after 48 hrs by cell counting analysis
SN12C = test: Growth inhibition of human SN12C cells after 48 hrs by cell counting analysis; conditions: at 10 µM
TK-10 = test: Growth inhibition of human TK10 cells after 48 hrs by cell counting analysis; conditions: at 10 µM
UO-31 = test: Growth inhibition of human UO31 cells after 48 hrs by cell counting analysis; conditions: at 10 µM
PC-3 = test: Growth inhibition of human PC3 cells after 48 hrs by cell counting analysis; conditions: at 10 µM
MCF7 = test: Growth inhibition of human MCF7 cells after 48 hrs by cell counting analysis; conditions: at 10 µM
MDA-MB-231 = test: Growth inhibition of human MDA-MB-231 cells after 48 hrs by cell counting analysis; conditions: at 10 µM
BT-549 = test: Growth inhibition of human BT549 cells after 48 hrs by cell counting analysis; conditions: at 10 µM
T47D = test: Growth inhibition of human T47D cells after 48 hrs by cell counting analysis; conditions: at 10 µM
MDA-MB-468 = test: Growth inhibition of human MDA-MB-468 cells after 48 hrs by cell counting analysis
[3] = Antiproliferative activity against human leukemia cells after 48 hrs by cell counting analysis
[4] = Antiproliferative activity against human non-small cell lung cancer cells after 48 hrs by cell counting analysis; conditions: Cancer cell lines
[5] = Antiproliferative activity against human colon cancer cells after 48 hrs by cell counting analysis; conditions: Cancer cell lines
[6] = Antiproliferative activity against human CNS cancer cells after 48 hrs by cell counting analysis; conditions: Cancer cell lines
[7] = Antiproliferative activity against human melanoma cells after 48 hrs by cell counting analysis
[8] = Antiproliferative activity against human ovarian cancer cells after 48 hrs by cell counting analysis; conditions: Cancer cell lines
[9] = Antiproliferative activity against human renal cancer cells after 48 hrs by cell counting analysis; conditions: Cancer cell lines
[10] = Antiproliferative activity against human prostate cancer cells after 48 hrs by cell counting analysis; conditions: Cancer cell lines
[11] = Antiproliferative activity against human breast cancer cells after 48 hrs by cell counting analysis; conditions: Cancer cell lines
MOLT-4 = test: Growth inhibition of human MOLT4 cells after 48 hrs by cell counting analysis; conditions: at 10 µM
HCT-116 = test: Growth inhibition of human HCT116 cells after 48 hrs by cell counting analysis; conditions: at 10 µM
[12] = read-out: LC50 (the source's name)

## O=C(CCCl)Nc1nc(-c2ccc(Cl)cc2)cs1
CCRF-CEM
  growth inhibition (GI): 88.3%
HL-60
  growth inhibition (GI): 28.5%
K562
  growth inhibition (GI): 63%
RPMI-8226
  growth inhibition (GI): 92.8%
SR
  growth inhibition (GI): 77.7%
A549
  growth inhibition (GI): 39.9%
EKVX
  growth inhibition (GI): 29.6%
HOP-62
  growth inhibition (GI): 49%
HOP-92
  growth inhibition (GI): Active
NCI-H226
  growth inhibition (GI): 51%
NCI-H23
  growth inhibition (GI): 29%
[1]
  growth inhibition (GI): 16.9%
NCI-H522
  growth inhibition (GI): 95.6%
HCC 2998
  growth inhibition (GI): 15.8%
HCT-15
  growth inhibition (GI): 61.4%
HT-29
  growth inhibition (GI): 78%
KM12
  growth inhibition (GI): 43.8%
SW-620
  growth inhibition (GI): 76%
SF-268
  growth inhibition (GI): 51.7%
SF-295
  growth inhibition (GI): 29.8%
SF-539
  growth inhibition (GI): 94.6%
SNB-19
  growth inhibition (GI): 26.2%
SNB-75
  growth inhibition (GI): 58.8%
U-251
  growth inhibition (GI): 55.4%
LOX IMVI
  growth inhibition (GI): 43.1%
Malme-3M
  growth inhibition (GI): 44%
M14
  growth inhibition (GI): 44.7%
MDA-MB-435
  growth inhibition (GI): 68.1%
SK-MEL-2
  growth inhibition (GI): 72.7%
SK-MEL-28
  growth inhibition (GI): 21.2%
SK-MEL-5
  growth inhibition (GI): 46.8%
UACC-257
  growth inhibition (GI): 43%
UACC-62
  growth inhibition (GI): 38.7%
IGROV-1
  growth inhibition (GI): 48.9%
OVCAR-3
  growth inhibition (GI): 89.8%
OVCAR-4
  growth inhibition (GI): 16.4%
OVCAR-5
  growth inhibition (GI): 35.7%
OVCAR-8
  growth inhibition (GI): 52.8%
[2]
  growth inhibition (GI): 51.2%
SK-OV-3
  growth inhibition (GI): 25.7%
ACHN
  growth inhibition (GI): 39.2%
CAKI-1
  growth inhibition (GI): 52.5%
RXF 393
  growth inhibition (GI): Active
SN12C
  growth inhibition (GI): 48.3%
TK-10
  growth inhibition (GI): <10%
UO-31
  growth inhibition (GI): 70.1%
PC-3
  growth inhibition (GI): 59.7%
MCF7
  growth inhibition (GI): 55.8%
MDA-MB-231
  growth inhibition (GI): 44.6%
BT-549
  growth inhibition (GI): 89.9%
T47D
  growth inhibition (GI): 52.1%
MDA-MB-468
  growth inhibition (GI): Active
[3]
  GI50: 2200 nM
  TGI: 8.9 µM
[3]; [12]
  CC50: 90.2 µM
[4]
  GI50: 6.1 µM
  TGI: 19 µM
[4]; [12]
  CC50: 51.5 µM
[5]
  GI50: 3.9 µM
  TGI: 13.5 µM
[5]; [12]
  CC50: 44 µM
[6]
  GI50: 3.1 µM
  TGI: 14.7 µM
[6]; [12]
  CC50: 50.9 µM
[7]
  GI50: 3.2 µM
  TGI: 13.1 µM
[7]; [12]
  CC50: 47.6 µM
[8]
  GI50: 4.1 µM
  TGI: 21.8 µM
[8]; [12]
  CC50: 67 µM
[9]
  GI50: 1700 nM
  TGI: 7.9 µM
[9]; [12]
  CC50: 32.1 µM
[10]
  GI50: 2800 nM
  TGI: 13.8 µM
[10]; [12]
  CC50: 42.2 µM
[11]
  GI50: 2400 nM
  TGI: 8.8 µM
[11]; [12]
  CC50: 55.9 µM
MOLT-4
  growth inhibition (GI): 61.3%
HCT-116
  growth inhibition (GI): 79.3%
